Measured values taken from patent US20240343733A1, “COMPOUNDS FOR TARGETING DEGRADATION OF IRAK4 PROTEINS” (BIOGEN MA INC., priority 2021, published 2024).

Assays:
IKZF1 = molecular target: T1, IKZF1 (Homo sapiens, UniProt Q13422); assay: IKZF1 Degradation Assay, HiBiT Method; assay type: cell-based; conditions: NCIH929 cells expressing HiBiT-tagged IKZF1, 6 hours, top concentration 10 μM
T1 construct: endogenously expressing IKZF1 with HiBiT fusion tag via CRISPR
Description: Assay 2. IKZF1 Degradation Assay, HiBiT Method
Selected compounds of this disclosure were tested in an IKZF1 degradation assay using the HiBiT Method.
RPMI no-phenol red medium and fetal bovine serum (FBS) were purchased from Gibco (Grand Island, NY, USA). Nano-Glo® HiBiT Lytic Assay System was purchased from Promega (Madison, WI, USA). […] Cell culture flasks and 384-well microplates were acquired from VWR (Radnor, PA, USA).
IKZF1 degradation was determined based on quantification of luminescent signal using Nano-Glo® HiBiT Lytic Assay kit. […] NCIH929 cells expressing HiBiT-tagged IKZF1 were added into 384-well plates in RPMI medium containing 10% FBS and 0.05 mM 2-mercaptoethanol at a cell density of 15000 cells per well. The plates were kept at 37° C. with 5% CO2 for 6 hours. Cells treated in the absence of the test compound were the negative control and wells containing media only were the positive control. After 6-hour incubation, Nano-Glo® HiBiT Lytic Assay reagents were added to the designated wells. Luminescence was acquired on EnVision® Multilabel Reader (PerkinElmer, Santa Clara, CA, USA).

IRAK4 = molecular target: T2, IRAK4 (Homo sapiens, UniProt Q9NWZ3); assay: IRAK4 Degradation Assay, HiBiT Method; assay type: cell-based; conditions: 293T cells expressing HiBiT-tagged IRAK4, 6 hours
T2 construct: 293Tcells expressing HiBiT-tagged IRAK4 were then added into 384-well plates
T2 sequence (Q9NWZ3 1-460): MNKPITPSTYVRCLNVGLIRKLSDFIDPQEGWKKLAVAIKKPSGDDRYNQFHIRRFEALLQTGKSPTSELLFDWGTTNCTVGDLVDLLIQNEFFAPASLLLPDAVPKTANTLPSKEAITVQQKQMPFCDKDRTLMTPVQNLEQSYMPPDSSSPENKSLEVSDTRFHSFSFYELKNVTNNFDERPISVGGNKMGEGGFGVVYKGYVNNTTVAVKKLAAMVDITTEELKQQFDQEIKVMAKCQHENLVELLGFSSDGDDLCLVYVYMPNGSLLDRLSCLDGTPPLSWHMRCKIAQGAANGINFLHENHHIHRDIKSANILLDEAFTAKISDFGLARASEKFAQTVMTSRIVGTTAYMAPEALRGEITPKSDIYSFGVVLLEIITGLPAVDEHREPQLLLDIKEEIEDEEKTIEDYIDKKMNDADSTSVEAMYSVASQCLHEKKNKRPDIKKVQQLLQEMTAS
How it was run: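 Luminescent read-out with Nano-Glo HiBiT lytic reagent after 6 h compound exposure at 37 °C. Cells were HiBiT-IRAK4 knock-in 293T (C-terminal tag), 10,000 per well. Compounds ran as 11-point half-log dilutions from […] highest dose, duplicate wells; DMSO served as negative control.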

T1 sequence (Q96SW2 whole entry partner, the tested form may be a part): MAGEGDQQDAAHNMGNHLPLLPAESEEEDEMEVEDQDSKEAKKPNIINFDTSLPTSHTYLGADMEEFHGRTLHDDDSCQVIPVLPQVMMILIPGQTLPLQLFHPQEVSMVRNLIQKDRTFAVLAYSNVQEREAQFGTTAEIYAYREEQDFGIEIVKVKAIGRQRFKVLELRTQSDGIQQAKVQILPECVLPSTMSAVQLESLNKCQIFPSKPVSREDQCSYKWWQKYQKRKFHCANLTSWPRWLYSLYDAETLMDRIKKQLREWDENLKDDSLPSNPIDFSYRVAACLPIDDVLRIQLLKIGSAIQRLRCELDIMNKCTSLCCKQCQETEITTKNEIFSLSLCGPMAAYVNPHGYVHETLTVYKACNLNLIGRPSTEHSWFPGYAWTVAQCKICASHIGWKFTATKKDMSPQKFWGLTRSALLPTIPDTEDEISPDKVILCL
T1 sequence (Q16531 whole entry partner, the tested form may be a part): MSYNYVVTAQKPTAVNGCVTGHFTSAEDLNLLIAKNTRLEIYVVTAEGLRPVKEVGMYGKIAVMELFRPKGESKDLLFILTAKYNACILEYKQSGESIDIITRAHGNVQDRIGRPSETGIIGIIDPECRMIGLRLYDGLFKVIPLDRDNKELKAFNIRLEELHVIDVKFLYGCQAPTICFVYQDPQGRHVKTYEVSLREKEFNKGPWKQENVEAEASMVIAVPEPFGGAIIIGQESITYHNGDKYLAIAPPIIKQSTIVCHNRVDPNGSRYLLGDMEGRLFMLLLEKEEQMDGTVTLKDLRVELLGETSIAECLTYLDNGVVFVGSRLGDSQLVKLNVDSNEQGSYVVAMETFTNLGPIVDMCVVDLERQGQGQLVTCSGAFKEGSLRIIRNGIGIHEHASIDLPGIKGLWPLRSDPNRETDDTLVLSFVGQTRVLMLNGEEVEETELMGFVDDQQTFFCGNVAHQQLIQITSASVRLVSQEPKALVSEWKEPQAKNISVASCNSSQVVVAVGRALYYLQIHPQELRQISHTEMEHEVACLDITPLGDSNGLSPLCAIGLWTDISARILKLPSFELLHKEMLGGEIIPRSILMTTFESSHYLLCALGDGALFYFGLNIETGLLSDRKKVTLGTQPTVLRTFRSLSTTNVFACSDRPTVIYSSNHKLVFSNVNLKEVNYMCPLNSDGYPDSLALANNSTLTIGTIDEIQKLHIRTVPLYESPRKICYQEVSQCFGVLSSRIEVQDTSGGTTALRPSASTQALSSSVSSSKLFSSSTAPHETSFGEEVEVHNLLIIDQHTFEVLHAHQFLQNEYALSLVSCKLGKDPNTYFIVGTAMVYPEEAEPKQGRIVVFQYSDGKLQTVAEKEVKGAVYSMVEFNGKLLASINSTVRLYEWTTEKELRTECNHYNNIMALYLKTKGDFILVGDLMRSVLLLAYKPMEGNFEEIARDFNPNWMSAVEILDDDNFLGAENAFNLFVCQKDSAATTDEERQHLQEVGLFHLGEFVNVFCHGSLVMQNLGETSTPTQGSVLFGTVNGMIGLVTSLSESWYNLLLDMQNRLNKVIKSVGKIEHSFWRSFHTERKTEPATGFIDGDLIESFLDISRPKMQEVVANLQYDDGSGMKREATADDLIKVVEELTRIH
T1 sequence (Q13422 whole entry, the tested form may be a part): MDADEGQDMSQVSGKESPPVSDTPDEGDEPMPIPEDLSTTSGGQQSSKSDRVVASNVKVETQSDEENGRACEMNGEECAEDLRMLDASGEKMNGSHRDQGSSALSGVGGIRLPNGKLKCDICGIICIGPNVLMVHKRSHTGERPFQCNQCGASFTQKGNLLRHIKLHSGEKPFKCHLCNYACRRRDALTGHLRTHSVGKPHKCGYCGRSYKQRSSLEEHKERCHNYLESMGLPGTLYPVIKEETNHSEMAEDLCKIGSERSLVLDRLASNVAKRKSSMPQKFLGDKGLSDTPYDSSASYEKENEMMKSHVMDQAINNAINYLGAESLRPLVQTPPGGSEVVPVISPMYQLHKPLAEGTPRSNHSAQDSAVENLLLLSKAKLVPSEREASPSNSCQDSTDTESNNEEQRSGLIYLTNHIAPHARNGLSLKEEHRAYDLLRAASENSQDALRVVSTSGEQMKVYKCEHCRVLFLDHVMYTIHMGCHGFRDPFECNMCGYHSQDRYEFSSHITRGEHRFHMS

SMILES | DC50 (IKZF1) | DC50 (IRAK4)
CC(C)Oc1cc2nc([C@H]3CC[C@H](CN4CCN(c5ccc6c(N7CCC(=O)NC7=O)nn(C)c6c5)CC4)CC3)cn2cc1C(=O)Nc1cccc(C(F)F)n1 [Example 41, N-[6-(difluoromethyl)-2-pyridyl]-2-[4-[[4-[3-(2,4-dioxohexahydropyrimidin-1-yl)-1-methyl-indazol-6-yl]piperazin-1-yl]methyl]cyclohexyl]-7-isopropoxy-imidazo[1,2-a]pyridine-6-carboxamide] | > 10000 nM | 10 to 100 nM
CC(C)Oc1cc2nc([C@H]3CC[C@H](CN4CCC(c5ccc6c(c5)n(C)c(=O)n6C5CCC(=O)NC5=O)C(F)(F)C4)CC3)cn2cc1C(=O)Nc1cnn2cccnc12 (stereo partly shown) [Example 49, 2-[4-[[4-[1-(2,6-dioxo-3-piperidyl)-3-methyl-2-oxo-benzimidazol-5-yl]-3,3-difluoro-1-piperidyl]methyl]cyclohexyl]-7-isopropoxy-N-pyrazolo[1,5-a]pyrimidin-3-yl-imidazo[1,2-a]pyridine-6-carboxamide] | > 10000 nM | < 10 nM
CC(C)Oc1cc2nn([C@H]3CC[C@H](CN4CCC(c5ccc(O[C@H]6CCC(=O)NC6=O)cc5)CC4)CC3)cc2cc1C(=O)Nc1cccn(C2CC2)c1=O (single isomer, unassigned) [Example 142] | > 10000 nM | < 10 nM
CC(C)Oc1cc2nn([C@H]3CC[C@H](CN4CCC(c5ccc(OC6CCC(=O)NC6=O)cc5)CC4)CC3)cc2cc1C(=O)Nc1cccn(C2CC2)c1=O (stereo partly shown) [Example 113, N-(1-cyclopropyl-2-oxo-1,2-dihydropyridin-3-yl)-2-((1r,4r)-4-((4-(4-((2,6-dioxopiperidin-3-yl)oxy)phenyl)piperidin-1-yl)methyl)cyclohexyl)-6-isopropoxy-2H-indazole-5-carboxamide] | > 10000 nM | < 10 nM
CC(C)Oc1cc2nn(C3CCN(C(=O)CC4(O)CCN(c5cnc6c(c5)n(C)c(=O)n6C5CCC(=O)NC5=O)CC4)CC3)cc2cc1C(=O)Nc1cccn([C@H]2C[C@H]2F)c1=O (stereo partly drawn) [Example 153, 2-(1-(2-(1-(3-(2,6-dioxopiperidin-3-yl)-1-methyl-2-oxo-2,3-dihydro-1H-imidazo[4,5-b]pyridin-6-yl)-4-hydroxypiperidin-4-yl)acetyl)piperidin-4-yl)-N-(1-((1S,2R)-2-fluorocyclopropyl)-2-oxo-1,2-dihydropyridin-3-yl)-6-isopropoxy-2H-indazole-5-carboxamide] | > 10000 nM | 10 to 100 nM
CC(C)Oc1cc2nc(C3CCC(CN4CCC(c5ccc(C6CCC(=O)NC6=O)cc5F)CC4)CC3)cn2cc1C(=O)Nc1cnn2cccnc12 (stereo not shown) [Example 47, 2-[4-[[4-[4-(2,6-dioxo-3-piperidyl)-2-fluoro-phenyl]-1-piperidyl]methyl]cyclohexyl]-7-isopropoxy-N-pyrazolo[1,5-a]pyrimidin-3-yl-imidazo[1,2-a]pyridine-6-carboxamide] | > 10000 nM | < 10 nM
CC(C)Oc1cc2nn([C@H]3CC[C@H](CN4CCN(c5ccc(C6CCC(=O)NC6=O)cn5)CC(O)C4)CC3)cc2cc1C(=O)Nc1cccn([C@H]2C[C@H]2F)c1=O (stereo partly drawn) [Example 120, 2-((1r,4S)-4-((4-(5-(2,6-dioxopiperidin-3-yl)pyridin-2-yl)-6-hydroxy-1,4-diazepan-1-yl)methyl)cyclohexyl)-N-(1-((1S,2R)-2-fluorocyclopropyl)-2-oxo-1,2-dihydropyridin-3-yl)-6-isopropoxy-2H-indazole-5-carboxamide] | > 10000 nM | < 10 nM
CC(C)Oc1cc2nc(C3CCN(CC(=O)N4CCC(c5ccc(C6CCC(=O)NC6=O)cc5)CC4)CC3)cn2cc1C(=O)Nc1cnn2cccnc12 (stereo not shown) [Example 96, 2-[1-[2-[4-[4-(2,6-dioxo-3-piperidyl)phenyl]-1-piperidyl]-2-oxo-ethyl]-4-piperidyl]-7-isopropoxy-N-pyrazolo[1,5-a]pyrimidin-3-yl-imidazo[1,2-a]pyridine-6-carboxamide] | > 10000 nM | 10 to 100 nM
CC(C)Oc1cc2nc(C3CCN(C(=O)CC4CCN(c5ccc(C6CCC(=O)NC6=O)cn5)CC4)CC3)cn2cc1C(=O)Nc1cnn2cccnc12 (stereo not shown) [Example 159, 2-(1-(2-(1-(5-(2,6-dioxopiperidin-3-yl)pyridin-2-yl)piperidin-4-yl)acetyl)piperidin-4-yl)-7-isopropoxy-N-(pyrazolo[1,5-a]pyrimidin-3-yl)imidazo[1,2-a]pyridine-6-carboxamide] | > 10000 nM | < 10 nM
CC(C)Oc1cc2nc(C3CCN(CC(=O)N4CCC(c5ccc(NC6CCC(=O)NC6=O)cc5)CC4)CC3)cn2cc1C(=O)Nc1ccn(C)n1 (stereo not shown) [Example 108, 2-[1-[2-[4-[4-[(2,6-dioxo-3-piperidyl)amino]phenyl]-1-piperidyl]-2-oxo-ethyl]-4-piperidyl]-7-isopropoxy-N-(1-methylpyrazol-3-yl)imidazo[1,2-a]pyridine-6-carboxamide] | > 10000 nM | 10 to 100 nM
CC(C)Oc1cc2nc([C@H]3CC[C@H](CN4CCC(c5ccc(C6CCC(=O)NC6=O)cc5F)CC4)CC3)cn2cc1C(=O)Nc1cccc(C(F)F)n1 (stereo partly shown) [Example 23, N-[6-(difluoromethyl)-2-pyridyl]-2-[4-[[4-[4-(2,6-dioxo-3-piperidyl)-2-fluoro-phenyl]-1-piperidyl]methyl]cyclohexyl]-7-isopropoxy-imidazo[1,2-a]pyridine-6-carboxamide] | > 10000 nM | 10 to 100 nM
Cc1cnc2c(NC(=O)c3cn4cc([C@H]5CC[C@H](CN6CCC(c7ccc(OC8CCC(=O)NC8=O)cc7)CC6)CC5)nc4cc3OC(C)C)cnn2c1 (stereo partly shown) [Example 52, 2-[4-[[4-[4-[(2,6-dioxo-3-piperidyl)oxy]phenyl]-1-piperidyl]methyl]cyclohexyl]-7-isopropoxy-N-(6-methylpyrazolo[1,5-a]pyrimidin-3-yl)imidazo[1,2-a]pyridine-6-carboxamide] | > 10000 nM | < 10 nM
CC(C)Oc1cc2nc(C3CCN(C(=O)CC4CCN(c5ncc(C6CCC(=O)NC6=O)cc5F)CC4)CC3)cn2cc1C(=O)Nc1cnn2cccnc12 (stereo not shown) [Example 162, 2-(1-(2-(1-(5-(2,6-dioxopiperidin-3-yl)-3-fluoropyridin-2-yl)piperidin-4-yl)acetyl)piperidin-4-yl)-7-isopropoxy-N-(pyrazolo[1,5-a]pyrimidin-3-yl)imidazo[1,2-a]pyridine-6-carboxamide] | > 10000 nM | 10 to 100 nM
CC(C)Oc1cc2nc(C3CCN(CC(=O)N4CCC(c5ccc(C6(F)CCC(=O)NC6=O)cc5)CC4)CC3)cn2cc1C(=O)Nc1cnn2cccnc12 (stereo not shown) [Example 98, 2-[1-[2-[4-[4-(3-fluoro-2,6-dioxo-3-piperidyl)phenyl]-1-piperidyl]-2-oxo-ethyl]-4-piperidyl]-7-isopropoxy-N-pyrazolo[1,5-a]pyrimidin-3-yl-imidazo[1,2-a]pyridine-6-carboxamide] | > 10000 nM | 10 to 100 nM
CC(C)Oc1cc2nn([C@H]3CC[C@H](CNC4CCN(c5ncc(C6CCC(=O)NC6=O)cc5F)CC4)CC3)cc2cc1C(=O)Nc1cccn(C2CC2)c1=O (stereo partly shown) [Example 125, N-(1-cyclopropyl-2-oxo-1,2-dihydropyridin-3-yl)-2-((1r,4r)-4-(((1-(5-(2,6-dioxopiperidin-3-yl)-3-fluoropyridin-2-yl)piperidin-4-yl)amino)methyl)cyclohexyl)-6-isopropoxy-2H-indazole-5-carboxamide] | > 10000 nM | < 10 nM
CC(C)Oc1cc2nc([C@H]3CC[C@H](CN4CCC(c5ccc(OC6CCC(=O)NC6=O)cc5)CC4)CC3)cn2cc1C(=O)Nc1cccc(C(F)F)n1 (stereo partly shown) [Example 31, N-[6-(difluoromethyl)-2-pyridyl]-2-[4-[[4-[4-[(2,6-dioxo-3-piperidyl)oxy]phenyl]-1-piperidyl]methyl]cyclohexyl]-7-isopropoxy-imidazo[1,2-a]pyridine-6-carboxamide] | > 10000 nM | 10 to 100 nM
CC(C)Oc1cc2nc([C@H]3CC[C@H](CN4CCC(c5cc(F)c(C6CCC(=O)NC6=O)cc5F)C(F)(F)C4)CC3)cn2cc1C(=O)Nc1cnn2cccnc12 (stereo partly shown) [Example 53, 2-[4-[[4-[4-(2,6-dioxo-3-piperidyl)-2,5-difluoro-phenyl]-3,3-difluoro-1-piperidyl]methyl]cyclohexyl]-7-isopropoxy-N-pyrazolo[1,5-a]pyrimidin-3-yl-imidazo[1,2-a]pyridine-6-carboxamide] | > 10000 nM | 10 to 100 nM
